Assay results from US20140378408A1, “NUCLEOSIDE 5'-PHOSPHOROTHIOATE ANALOGUES AND USES THEREOF” (BAR-ILAN UNIVERSITY, an Israeli University, priority 2012, published 2014).
Entries after “also recorded” stand apart in the source; their conditions may differ.

Tests used:
[1] = Affinity to Zn^2+ ions (log K); type: physicochemical
[2] = IV administration to mice, detection in blood by HPLC; type: in vivo
cartilage pieces = assay: NTMP hydrolysis in cartilage pieces; set-up: species or system human; conditions: 0.1 mM, NTMP 0.1 mM, OD 405 nm
From the text: Increased chondrocyte PPi production, and PPi-generating NPP1 activity are linked with CPPD crystal deposition disease, common in aging and osteoarthritic cartilage. […] Its hydrolysis by endogenous enzyme (NPP1) from matrix vesicles (MVs), human chondrocytes or cartilage pieces results in elevated OD at 405 nm.
In order to test the ability of the NPP1 inhibitor to inhibit NTMP hydrolysis in cartilage pieces, 12 pieces of cartilage of a uniform diameter were weighed and placed in wells of a 96-well plate overnight in DMEM w/o phenol red with penicillin-streptomycin-glutamine (PSG). The pieces of cartilage were incubated with 0.1 mM NTMP in TES, pH 7.37, in the presence or absence of 0.1 mM of the NPP1 inhibitor for 0, 15′, 30′, 1, 2, 4, 6, 8 hours at 37° C. At each time point 200 μl were removed from each well and the reaction was read at 405 nm.

Aβ40-Cu^2+ aggregates = target: T1, Aβ40-Cu^2+ aggregates (Homo sapiens, UniProt P05067); assay: TEM, size reduction of Aβ40-Cu^2+ aggregates; conditions: 6 eq, 7 h; aggregates 2.5 μm before
T1 construct: purchased GL-Biochem (Shanghai)
T1 sequence (P05067 672-711): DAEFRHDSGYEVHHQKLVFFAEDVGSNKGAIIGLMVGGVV
Experimental: (§1) TEM sample was prepared from 200 μM Aβ-M^2+ 1:1 solution (pH 7.4 or 6.6 for Aβ40-Zn^2+ or Aβ40-Cu^2+, respectively) incubated in a rotary shaker for 9 days at RT. A cloudy mixture with massive sediments was obtained. TEM samples were prepared by diluting the stock solutions with PBS to a concentration of 25 μM with or without APCPP-γ-S. In this way four samples were obtained: (i) 25 μM Aβ40-Cu^2+; (ii) 25 μM Aβ40-Cu^2+ containing 150 μM APCPP-γ-S; (iii) 25 μM Aβ40-Zn^2+; and (iv) 25 μM Aβ40-Zn^2+ containing 150 μm APCPP-γ-S. The mixtures were incubated in a rotary shaker for 7 h and after vortexing, a sample was transferred to a gold grid, for Aβ40-Cu^2+, or a copper grid for Aβ40-Zn^2+. The wet grid was left to dry at RT overnight.
(§2) To validate the DLS data indicating the efficiency of APCPP-γ-S, we monitored the dissolution of Aβ40-M^2+ aggregates in the presence of APCPP-γ-S by TEM. Aβ40-Cu^2+ and Aβ40-Zn^2+ 1:1 complexes were incubated for 9 days at RT, resulting in a significant sediment. Aβ40-Cu^2+ aggregates of 2.5 μm in diameter (FIG. 6A) and Aβ40-Zn^2+ aggregates of different sizes from 100 nm to 2.5 μm (FIG. 6C) were observed by TEM measurements. APCPP-γ-S (6 eq) was then added and the mixture was incubated for 7 h.

[3] = Pharmacokinetics and BBB permeation after IV injection in mice; type: in vivo, F1 (C57B×S29) mice
Experimental: As shown in Example 14, APCPP-γ-S is stable in human blood serum as well as in brain, liver and blood from mice. In this study, we evaluated APCPP-γ-S blood-brain barrier (BBB) permeability and pharmacokinetics in F1 (C57B×S29) mice. APCPP-γ-S was injected intravenously (IV) at 40 mg/Kg into four mice (each mouse was injected with 1.5 mg of APCPP-γ-S). The mice were sacrificed after 30 minutes (2 of the 4) or 90 minutes (thr other 2 of the 4), and samples from brain and blood were taken to analysis. Each sample was collected into 0.5 ml saline, sonicated and extracted with chloroform, applied onto an anion exchange cartridge, and freeze-dried. The resulting residue was analyzed by HPLC. We detected the presence of 67.5 and 64% of the injected amount of APCPP-γ-S in the blood samples after 30 and 90 minutes, respectively. In the brain sample we obtained ca. 2% permeability (data not shown).

[4] = Metabolic stability in mouse brain, liver and blood homogenates (HPLC); type: in vitro ADME, mice; conditions: 37° C., up to 180 min
Experimental: In order to use APCPP-γ-S as a neuroprotectant agent and test its activity in an animal model, we first evaluated the metabolic stability of APCPP-γ-S in several tissues such as liver, brain and blood. In this assay we took samples from mice brain, liver and blood. The tissue samples were homogenated by sonication and split to 0.5 ml aliquots. Each sample was mixed with 0.1 mg of APCPP-γ-S and incubated at 37° C. for 10, 30, 90 and 180 min. After incubation, the samples were collected and extracted with chloroform at 1:1 v/v ratio. The aqueous layer was removed and freeze-dried. Samples were loaded onto an activated Starta X-AW weak anion exchange cartridge, washed with H2O (1 ml) and eluted with MeOH:H2O (1:1, 1 ml) followed by NH4OH:MeOH:H2O (2:25:73, 1 ml), and then freeze-dried. The resulting residue was analyzed by HPLC. […] Each analysis cycle was set to 30 minutes. The chromatographic flow was monitored at 260 nm and integrated using EZChrom Elite Software.

Aβ40-Zn^2+ aggregates = target: T2, Aβ40-Zn^2+ aggregates (Homo sapiens, UniProt P05067); assay: TEM, size reduction of Aβ40-Zn^2+ aggregates; conditions: 6 eq, 7 h; aggregates 100 nm to 2.5 μm before
T2 construct: purchased GL-Biochem (Shanghai)
T2 sequence (P05067 672-711 limits assumed): as the sequence (P05067 672-711) above
Experimental: as §1, §2

Aβ40-Cu^+ complex = target: T3, Aβ40-Cu^+ complex (Homo sapiens, UniProt P05067); assay: Re-solubilization of Aβ40-Cu^+ aggregates monitored by 1H-NMR; conditions: 6 eq, pD 7.8
T3 construct: purchased GL-Biochem (Shanghai)
T3 sequence (P05067 672-711, one chain of several): as the sequence (P05067 672-711) above
Experimental: ^1H-NMR spectrum of 0.25 mM Aβ40 (concentration determined by UV) in 10 mM TRIS-d11 (500 μl, pD 11) was measured at 278 K. The pD was adjusted to 7.8 by the addition of 0.1 N DCl (33 μl), and ^1H-NMR spectrum was measured (700 MHz, 80 scans), as well as after each of the following additions: (A) 8.3 mM Cu^+ (15 μl, 1 eq); (B) 6 mM compound 7 (21 μl, 1 eq); (C) 6 mM compound 7 (42 μL, 3 eq); (D) of 6 mM APCPP-γ-S (62.4 μl, 6 eq); (E) of 6 mM APCPP-γ-S (62.4 μl, 9 eq). At the end of the titration, the acetonitrile concentration was 2% (v/v) in 735.8 μl, pD 8.4.
APCPP-γ-S, the most promising chelator identified here, was used also to resolubilize Aβ40-Cu^+ aggregates. This process was monitored by ^1H-NMR similar to that described above for Aβ28. First, the ^1H-NMR spectrum of 0.25 mM Aβ40 monomer at 278 K, pD 11, was measured (FIG. 7a), after adjustment of Aβ40 solution pD to 7.8 the signals shifted and broadened (FIG. 7b). Upon addition of 1 eq 8.3 mM Cu(CH3CN)4PF6 the signals dramatically further broadened (FIG. 7c).

Nc1ncnc2c1ncn2[C@@H]1O[C@H](COP(O)(=S)OP(=O)(O)C(Cl)(Cl)P(=O)(O)O)[C@@H](O)[C@H]1O (single isomer, unassigned) [APPCCl2P-α-S, adenosine 5′-[Pα-thio]-β,γ-(dichloromethylene)triphosphate]
log K (Zn^2+) [1]: 6.5 | times higher affinity to Zn^2+ ions as compared to ATP [1]: 50 | detection in blood after IV administration [2]: could be detected in blood (by HPLC) even after 3 h

Nc1ncnc2c1ncn2[C@@H]1O[C@H](COP(O)(=S)OP(=O)(O)C(Cl)(Cl)P(=O)(O)O)[C@@H](O)[C@H]1O (single isomer, unassigned; isomer a) [APPCCl2P-α-S (isomer A), adenosine 5′-[Pα-thio]-β,γ-(dichloromethylene)triphosphate]
inhibition of NTMP hydrolysis in cartilage pieces (cartilage pieces): inhibit the hydrolysis of NTMP

Nc1ncnc2c1ncn2[C@@H]1O[C@H](COP(=O)(O)CP(=O)(O)OP(O)(O)=S)[C@@H](O)[C@H]1O [APCPP-γ-S, adenosine 5′-[Pγ-thio]-α,β-methylenetriphosphate]
aggregate size after addition (Aβ40-Cu^2+ aggregates): less than 250 nm | injected amount present in blood ([3]; IV 40 mg/Kg, after 30 minutes): 67.5% | permeability into brain ([3]; IV 40 mg/Kg, brain sample): ca. 2% | injected amount present in blood ([3]; IV, after 90 minutes): 64% | metabolic stability in brain, liver and blood [4]: no significant degradation after 3 h; also recorded: could be detected even after 180 min | aggregate size after addition (Aβ40-Zn^2+ aggregates): less than 500 nm | effect on Aβ40-Cu^+ 1H-NMR spectrum (Aβ40-Cu^+ complex): all signals reappeared
